Measured values from US9873670B2, “Arylquinoline and analog compounds and use thereof to treat cancer” (UNIVERSITY OF KENTUCKY RESEARCH FOUNDATION, priority 2013, dated 2018).

Columns and labels:
Par-4 secretion = assay: Par-4 secretion, cells not specified; assay type: cell-based
[1] = test system: mouse embryonic fibroblast (MEF) cells; assay: Par-4 secretion from normal mouse fibroblasts (Western blot of conditioned medium); assay type: cell-based; details: for level of Par-4 secretion, structure-activity comparison among analogs: normal mouse fibroblasts, conditions not toxic to the cells
Procedure: In another aspect, the subject technology provides assays for screening test compounds that interfere with vimentin binding to PAR-4 or which cause release of vimentin-bound PAR-4. In a typical assay, cells, such as HEL cells, are seeded onto an appropriate support, such as 60-mm plates containing supplemented growth medium (e.g., supplemented with 0.1% serum) at a desired confluency, such as 40-70% confluency, and treated with the test compound (e.g., 500 nM) or control vehicle. The cells are allowed to grow for a period of time, such as 24 hours, after which the conditioned medium (CM) is concentrated (e.g., concentrated 30× to 100 μl using Millipore tubes (Amicon Ultra centrifugal filters, Ultracel-10K) by 15 min centrifugation at 4500 rpm). The concentrated CM is then subjected to co-immunoprecipitation using detectably labeled PAR-4 and vimentin antibodies in the presence of various concentrations of purified PAR-4 and the precipitated proteins are resolved by SDS-PAGE and analyzed by Western blot analysis. The amount of immunoprecipitated PAR-4-vimentin complex is compared to that of control samples. For example, chemiluminescent signals may be quantified in the BIO-RAD Molecular Imager ChemiDoc XRS+Imaging system using Quantity One software. Induction of Par-4 secretion by the test drug (e.g., 500 nM), as judged by this Western blot analysis procedure, will indicate dissociation of Par-4 from vimentin. […] For such experiments, cells may be treated with the test drug (e.g., 500 nM) or vehicle for an appropriate period of time, such as 24 hours, and then cell lysates are prepared and subjected to immunoprecipitation using an appropriate amount of a Par-4 antibody, vimentin antibody or control IgG antibody by using any standard immunoprecipitation procedure. Following […], the complexes are resolved, preferably by Western blot analysis as described above. If the drug inhibits the binding of Par-4 to vimentin, it will be reflected in the lack of co-immunoprecipitation of Par-4 with the vimentin antibody, and co-immunoprecipitation of vimentin with the Par-4 antibody.
Co-Immunoprecipitation and Western blot analysis: Protein extracted from cell lysates was filtered, pre-cleared with 25 μL (bed volume) of protein G-Sepharose beads and immunoprecipitated with 1 μg of respective antibodies. The eluted proteins were resolved by SDS-PAGE, and subjected to Western blot analysis as described.
To identify Par-4 secretagogues, we synthesized and screened 3-arylquinolines as well as related quinolones and quinothiolones for the secretion of Par-4 protein from normal fibroblasts under conditions that are not toxic to the cells.
We screened representative members of each of these heterocyclic families on a compound-by-compound basis for the secretion of Par-4 protein from normal mouse fibroblasts under conditions that were not toxic to the cells. Initial expectations were that these heterocycles would serve as Nutlin-3a surrogates and inhibit MDM2, but studies reported herein established a completely different mechanism of action, reflecting that the structural dissimilarities between these heterocycles and Nutlin-3a outweighed the similarities that led to their initial selection for screening.

| melting point | SMILES | further results |
| --- | --- | --- |
| 142 to 144 °C | CN(C)c1ccc2cc(-c3ccccc3F)cnc2c1 [Arylquin 6, 3-(2-fluorophenyl)-N,N-dimethylquinolin-7-amine] | level of Par-4 secretion, structure-activity comparison among analogs [1]: highest levels of Par-4 secretion |
| 251 to 253 °C | CN(C)c1ccc2cc(-c3ccccc3F)c(=S)[nH]c2c1 [Arylquin 5, 7-(dimethylamino)-3-(2-fluorophenyl)quinoline-2(1H)-thione] | – |
| 247 to 248 °C | CN(C)c1ccc2cc(-c3ccccc3F)c(=O)[nH]c2c1 [Arylquin 4, 7-(dimethylamino)-3-(2-fluorophenyl)quinolin-2(1H)-one] | – |
| 152 to 153 °C | Nc1nc2ccccc2cc1-c1ccccc1F [Arylquin 8, 3-(2-fluorophenyl)quinolin-2-amine] | level of Par-4 secretion, structure-activity comparison among analogs [1]: highest levels of Par-4 secretion |
| 123 to 125 °C | CN(C)c1ccc2cc(-c3ccccc3)c(N)nc2c1 [Arylquin 7, N^7,N^7-Dimethyl-3-phenylquinoline-2,7-diamine] | – |

Second part, the compound before the results:

| SMILES | melting point | further results |
| --- | --- | --- |
| CN(C)c1ccc2cc(-c3ccccc3F)c(SCC(=O)NCCOCCOCCNC(=O)CCCCC3SCC4NC(=O)NC43)nc2c1 (centres unmarked) [Biotinylated Arylquin 9, N-(2-(2-(2-(2-(7-(dimethylamino)-3-(2-fluorophenyl)quinolin-2-ylthio)acetamido)ethoxy)ethoxy)ethyl)-5-(2-oxohexahydro-1H-thieno[3,4-d]imidazol-4-yl)pentanamide] | – | Par-4 secretory properties (Par-4 secretion): retain Par-4 secretory properties |
| C[C@H]1CCC/C=C/[C@@H]2C[C@H](O)C[C@H]2[C@H](O)/C=C/C(=O)O1 [Brefeldin A, reference compound] | – | effect on basal and Arylquin 1-inducible Par-4 secretion (Par-4 secretion): inhibited basal as well as Arylquin 1-inducible Par-4 secretion |
| COc1ccc(C2=N[C@@H](c3ccc(Cl)cc3)[C@@H](c3ccc(Cl)cc3)N2C(=O)N2CCNC(=O)C2)c(OC(C)C)c1 [Nutlin-3a, reference compound] | – | Par-4 secretion ([1]; MEF cells): stimulated Par-4 secretion at micromolar levels |
| CN(C)c1ccc2cc(-c3cccc(F)c3)c(N)nc2c1 [Arylquin 2, 3-(3-fluorophenyl)-N^7,N^7-dimethylquinoline-2,7-diamine] | 147 to 148 °C | – |
